Results as given in patent publication US5393772A, “Use of, and method of treatment using, hydroxycarbazole compounds for inhibition of smooth muscle migration and proliferation” (Boehringer Mannheim Pharmaceuticals Corporation, priority 1993, dated 1995).

System: rat aortic vascular smooth muscle cells
Assay: PDGF-induced migration of rat aortic vascular smooth muscle cells (modified Boyden chamber, Transwell)
Format: cell-based
Conditions: PDGF as chemoattractant, without inhibitor
Description: The procedure for assessing vascular smooth muscle cell migration was described previously in Hidaka, Y., Eda, T., Yonemoto, M. & Kamei, T. (1992) Atheroscler. 95, 87-94. Briefly, rat aortic vascular smooth muscle cells (passage 3) were suspended (1×10^6 cells/ml) in serum free DMEM supplemented with 0.2% (w/v) bovine serum albumin (Sigma). Migration assays were performed in modified Boyden chambers using Transwell (Costar, Cambridge, Mass.) cell culture chambers with a polycarbonate 8μm pore size membrane. PDGF was dissolved in DMEM and placed in the lower compartment in the presence, or absence, of compounds of Formula (I) wherein R1, R2, R3, R5, R6 or R8 are independently OH. Vascular smooth muscle cells (5×10^5) were then loaded in the upper compartment and incubated for 24 h at 37° C. in a humidified atmosphere containing 5% CO2. Non-migrated cells on the upper surface were scraped away gently and washed three times with PBS. Filters were fixed in methanol and stained with Giemsa. The number of vascular smooth muscle cells per 100×high power field (HPF) that had migrated to the lower surface of the filters was determined microscopically. Four HPFs were counted per filter. Experiments were performed either in duplicate or triplicate.
PDGF produced concentration-dependent increases in the migration of rat vascular smooth muscle cells with maximal effect obtained at a concentration of 1 nM. […] IC50 values for compounds of Formula (I) wherein R1, R2, R3, R5, R6 or R8 are independently OH were as follows.

Row | Molecule | concentration of maximal effect on migration [nM]
1 | PDGF | 1

Same assay, conditions: Rattus norvegicus; PDGF-induced migration; 24 h at 37° C; by position of OH group

Row | Molecule | IC50 [nM]
2 | COc1ccccc1OCCNCC(O)COc1c(O)ccc2[nH]c3ccccc3c12 (stereo not shown) [R3] | 200
3 | COc1ccc(O)cc1OCCNCC(O)COc1cccc2[nH]c3ccccc3c12 (stereo not shown) [R2] | 410
4 | COc1ccccc1OCCNCC(O)COc1cccc2[nH]c3ccc(O)cc3c12 (stereo not shown) [R8] | 360
5 | COc1ccccc1OCCNCC(O)COc1cccc2[nH]c3c(O)cccc3c12 (stereo not shown) [R6] | 1720
6 | COc1ccccc1OCCNCC(O)COc1ccc(O)c2[nH]c3ccccc3c12 (stereo not shown) [R5] | 180
7 | COc1cc(O)ccc1OCCNCC(O)COc1cccc2[nH]c3ccccc3c12 (stereo not shown) [R1] | 990
